Data taken from PMC10877774, “Development of an UPLC-MS/MS method for quantitative analysis of abexinostat levels in rat plasma and application of pharmacokinetics” (BMC Chemistry, 2024).

How the values were obtained:
[1] = Stability of abexinostat in rat plasma under different storage and handling conditions; format: in vitro ADME; details: for stability (in words) / stability of plasma samples (in words): RE within ± 15% considered stable; for Stability RE (%): n = 5
Protocol: For the preparation of control and standard curves, we dissolved abexinostat and IS in methanol at a concentration of 1.00 mg/mL. Both the abexinostat working solution and the 100 ng/mL IS working solution were diluted with methanol from their respective stock solutions. The corresponding working solution (10 μL) was diluted tenfold and operated by adding rat blank plasma (90 μL) to obtain a calibration curve with a concentration range of 2.00–100 ng/mL. The concentrations at each point in the standard curve were set to 2.00, 5.00, 10, 20, 50, 100 ng/mL, respectively. Final concentrations of QC samples were 2.00 (lower limit of quantitation, LLOQ), 5.00 (low quality control, LQC), 40 (median quality control, MQC), and 80 (high quality control, HQC) ng/mL.
The principles of the analytical methods in this study were performed in accordance with the FDA’s “Guidance for Industry: Bioanalytical Method Validation” [14], including calibration curves, selectivity, LLOQ, recovery, matrix effects, precision and accuracy, and stability.
Stability experiments to test abexinostat in plasma under different storage and handling conditions were done to investigate whether abexinostat was still stable in rat plasma. The stability test results were in Table 3. […] Furthermore, the assay remained stable in the autosampler (10 °C) for 4 h and 3 h at room temperature. Relative errors (RE) within ± 15% were considered stable by data comparison.

[2] = parameters: method as in PMID 27911138; details: cited from earlier work
[3] = Pharmacokinetic study in rats after single gavage dose, plasma levels by UPLC-MS/MS; format: in vivo, Sprague–Dawley Rats
Protocol: Quantitative analysis was performed using a UPLC-MS/MS system consisting of a Waters Xevo TQ-S triple quadrupole tandem mass spectrometer and a Waters ACQUITY UPLC I-Class system (Milford, MA, USA) used in this experiment. Accurate molecular weight calculations were achieved using an electrospray ionization (ESI) source (Milford, MA, USA) with ultra-high sensitivity. The system was chromatographed on an Acquity BEH C18 column (2.1 mm × 50 mm, 1.7 μm; Milford, MA, USA) at 40 °C with acetonitrile and 0.1% formic acid as mobile phases. Gradient elution was as follows: 0 − 0.5 min (acetonitrile, 10%) and 0.5–1.0 min (acetonitrile, 10–90%), 1.0–1.4 min (acetonitrile, 90%) and 1.4–1.5 min (acetonitrile, 90–10%) at 0.40 mL/min. Finally, the mobile phase was maintained 10% acetonitrile between 1.5 and 2.0 min for equilibration. A 2.0 μL sample was drawn from each vial as the injection volume, and the entire analysis process time was 2.0 min. In UPLC-MS/MS, we used positive ion mode to detect abexinostat and IS with ion transition of m/z 397.93 → 200.19 and 422.01 → 186.11, respectively. 25 eV and 30 V were the collision energy and cone voltage for both.
Plasma protein composition interfered with detection sensitivity. The protein precipitation method in this study was to add acetonitrile to the plasma, and the protein was fully precipitated and then centrifuged. We added 100 μL of the plasma sample along with 10 μL of the IS working solution (concentration of 100 ng/mL) in an Eppendorf (EP) tube. Mixing well and adding acetonitrile at a ratio of 1:3 to precipitate the protein in the EP tube, and centrifuged at 13,000 rpm for 10 min at 4 °C. 100 μL of the supernatant was transferred to an autosampler vial for quantitative analysis by the UPLC-MS/MS system.
Sprague–Dawley Rats Were Provided By The First Affiliated Hospital Of Wenzhou Medical University (Zhejiang, China), And The Animal Study Was Reviewed And Approved By Ethics Committee Of The First Affiliated Hospital of Wenzhou Medical University (WYYY-IACUC-AEC-2023-055). All rats were fasted for 24 h before the experimental animals, and a single gavage dose of 8.00 mg/kg of abexinostat was administered to 6 rats after fasting. At 20 and 40 min, 1, 1.5, 2, 3, 4, 6, 8, 12, 24, and 48 h after gavage, 300 μL of whole blood was collected from the tail vein of the rat and put into heparinized tubes. Then, the blood sample was centrifuged at 8000 rpm for 5 min. 100 μL of plasma was obtained and frozen at − 80 °C for further processing and analysis.
The main parameters of pharmacokinetics were analyzed by Drug and Statistics (DAS, Version 3.0 software, Shanghai University of Traditional Chinese Medicine, China).

[4] = parameters: method as in PMID 26482040; details: 60 mg/m^2 group; grade 5 acute renal failure, grade 3 long-term diarrhea; cited from earlier work
[5] = parameters: method as in PMID 28126962; details: patients with follicular lymphoma, T-cell lymphoma, diffuse large B-cell lymphoma, phase II; cited from earlier work
[6] = patients, most common grade 3 treatment-related adverse events
[7] = Sprague-Dawley, po, rat plasma, intragastric single dose 8.00 mg/kg, n = 6, Mean ± SD

In the case of `CN(C)Cc1c(C(=O)NCCOc2ccc(C(=O)NO)cc2)oc2ccccc12` [Abexinostat], the “stability (in words)” value ([1]; 3 h at room temperature) is reported as “stable”, the “Stability RE (%)” value ([1]; Autosampler 10 ℃, 4 h, 40 ng/mL) is reported as 15.0% and the “stability (in words)” value ([1]; autosampler (10 °C) for 4 h) is reported as “stable”. For the same compound, the “Stability RE (%)” value ([1]; plasma, Room temperature, 3 h, 40 ng/mL) was 2.2%, the “Stability RE (%)” value ([1]; plasma, Room temperature, 3 h, 80 ng/mL) was 0.2% and the “Stability RE (%)” value ([1]; plasma, Three freeze–thaw (− 80 °C/room temperature), 80 ng/mL) was 13.8%. The “Stability RE (%)” value ([1]; plasma, − 80 ℃, 3 weeks, 5.00 ng/mL) was 5.4%, the “Stability RE (%)” value ([1]; plasma, − 80 ℃, 3 weeks, 40 ng/mL) was 3.3% and the “stability of plasma samples (in words)” value ([1]; three cycles of full freezing (− 80 °C)/thawing (room temperature)) was “stable”. For the same compound, the “stability of plasma samples (in words)” value ([1]; − 80 °C for at least 3 weeks) was “stable”, the “evaluable patients with stable disease” value ([2]; Phase I, various types of leukemia) was 1 out of 12 and the “grade 3 treatment-related adverse event: neutropenia” value [2, 6] was 24%. For the same compound, the “grade 3 treatment-related adverse event: thrombocytopenia” value [2, 6] was 29%, the AUC(0-inf) [3, 7] was 501 ± 40.1 ng·h/mL and the AUC(0-t) [3, 7] was 461 ± 38.9 ng·h/mL. The Cmax [3, 7] was 28.2 ± 7.67 ng/mL, the half-life [3, 7] was 13.8 ± 2.5 h and the CL/F ([3]; Sprague-Dawley, po, rat plasma, intragastric single dose 8.00 mg/kg, n = 6, Mean ± SD, read-out: CLz/F (converted)) was 267 mL/min/kg. The MRT last ([3]; Sprague-Dawley, po, rat plasma, intragastric single dose 8.00 mg/kg, n = 6, Mean ± SD, read-out: MRT0-t) was 14.8 ± 0.8 h, the MRT inf ([3]; Sprague-Dawley, po, rat plasma, intragastric single dose 8.00 mg/kg, n = 6, Mean ± SD, read-out: MRT0-∞) was 19.1 ± 2.55 h and the Tmax ([3]; Sprague-Dawley, rat, plasma, po, 8 mg/kg, rat plasma, intragastric single dose 8.00 mg/kg, n = 6, Mean ± SD) was ~1.39 h. For the same compound, the “time at which plasma concentration peaks, estimated from Fig. 3” value ([3]; rats, oral administration 8.00 mg/kg, mean concentration–time curve) was “around 1 h”, the “patients with dose-limited toxicities (DLTs)” value [4] was 2/8 and the “tumor control (in words)” value [5] was “durable tumor control”.
